Assay results: patent US20250325565A1, “ERAVACYCLINE FOR TREATING CANCER” (B. G. NEGEV TECHNOLOGIES AND APPLICATIONS LTD., priority 2022, published 2025)

Tests used:
Format in all cases: cell-based, human
[1] = test system: p53 (mutated in BxPC-3); experiment: Western blot of p53 protein expression in BxPC-3 cells; details: BxPC-3, 72 h, increasing concentrations
[2] = test system: POLK; experiment: Western blot of POLK protein expression in BxPC-3 cells; details: BxPC-3, 72 h, increasing concentrations
[3] = test system: BxPC-3 cells; experiment: XTT cell proliferation assay, BxPC-3
Protocol: (§1) Human PDAC (AsPC-1, BxPC-3, Panc-1 scr, Panc-1 p53-R273H knock-out (KO) hTERT-HPNE), breast (MCF-7), lung (A549), and colon (HT-29) cancer cell lines were purchased from the American Type Culture Collection (ATCC). The MCF-7, A549, Panc-1 scr, Panc-1 p53 KO and HT-29 cell lines were grown in Dulbecco's Modified Eagle Medium (DMEM; Biological Industries, Beit HaEmek (BI), Israel), and the BxPC-3 and AsPC-1 cell lines were cultured in Roswell Park Memorial Institute-1640 (RPMI-1640; BI, Israel) medium. All media was supplemented with 10% fetal bovine serum (FBS), 200 μM L-glutamine (BI), and 1% penicillin-streptomycin (BI). Cells were cultured at 37° C. in a 5% CO2 humidified incubator.
(§2) Eravacycline dihydrochloride (MedChem Express (MCE)) was dissolved in […] (DDW). Tigecycline (MCE) and omadacycline (MCE) were dissolved in dimethyl sulphoxide (DMSO). All drugs were prepared as 100 mM stock solutions. All cell lines were treated with DMSO as a control (less than 0.1%) or tigecycline, omadacycline, or eravacycline (at the indicated concentrations) for 72 hours. Cell viability and proliferation were determined using the XTT Cell Proliferation Assay Kit (Promega).
(§3) The XTT Cell Proliferation Assay Kit was used to determine cell viability and proliferation. Cells were seeded in 96-well plates at a density of 4,000 cells per well and allowed to attach overnight in a 5% CO2 incubator at 37° C. After overnight incubation, cells were treated with culture medium or in a medium containing tigecycline, omadacycline, or eravacycline at different concentrations (1, 2, 5, 10, 25, and 50 μM) for the indicated time period. Then, 50 μl XTT reaction solution (0.1 ml activation solution+5 ml XTT reagent solution) was added to each well, and the plate was incubated at 37° C. for two hours. After shaking the plate gently to distribute the dye in the wells, the absorbance was measured with a spectrophotometer (Bio-RadiMark Microplate Absorbance reader) at a wavelength of 450 nm and a reference wavelength of 655 nm.
(§4) To evaluate the half maximal inhibitory concentration (IC50) of tetracycline derivatives on five different cell lines (MCF-7, A549, HT-29, BxPC-3, and AsPC-1), the cells were seeded and allowed to attach overnight. All cells were washed with phosphate buffered saline (PBS) and then cultured in fresh media containing the drugs tigecycline, omadacycline, or eravacycline at an increasing concentration (0-50 μM) for 72 h. Inhibition of cell proliferation was determined using the XTT Cell Proliferation Assay Kit.
(§5) To investigate the effect of tetracycline derivatives on cell proliferation in human breast, lung, colon, and PDAC cells, the inventors treated all cell lines (MCF-7, A549, HT-29, BxPC-3, and AsPC-1) with different concentrations of tigecycline, omadacycline, and eravacycline (1, 2, 5, 10, 25, and 50 μM), with medium used as a control, for 72 h. Then, an XTT assay was performed to determine the growth inhibition rate.

[4] = test system: AsPC-1 cells; experiment: XTT cell proliferation assay, AsPC-1
Protocol: as §1, §2, §3, §4, §5

[5] = test system: A549 cells; experiment: XTT cell proliferation assay, A549; details: A549, 72 h, 1-50 μM
Protocol: as §1, §2
(§6) The XTT Cell Proliferation Assay Kit was used to determine cell viability and proliferation. Cells were seeded in 96-well plates at a density of 4,000 cells per well and allowed to attach overnight in a 5% CO2 incubator at 37° C. […] After shaking the plate gently to distribute the dye in the wells, the absorbance was measured with a spectrophotometer (Bio-RadiMark Microplate Absorbance reader) at a wavelength of 450 nm and a reference wavelength of 655 nm.
(§7) To evaluate the half maximal inhibitory concentration (IC50) of tetracycline derivatives on five different cell lines (MCF-7, A549, HT-29, BxPC-3, and AsPC-1), the cells were seeded and allowed to attach overnight. […] Inhibition of cell proliferation was determined using the XTT Cell Proliferation Assay Kit. […]

[6] = test system: MCF-7 cells; experiment: XTT cell proliferation assay, MCF-7; details: MCF-7, 72 h, 1-50 μM
Protocol: as §1, §2, §6, §7

[7] = test system: HT-29 cells; experiment: XTT cell proliferation assay, HT-29; details: HT-29, 72 h, 1-50 μM
Protocol: as §1, §2, §6, §7

Row | SMILES | p53 protein expression vs control [1] | POLK protein expression vs control [2] | decrease in cell growth ([3]; BxPC-3, 1 μM, 72 h) [%] | decrease in cell growth ([3]; BxPC-3, 10 μM, 72 h) [%] | effect on cell survival / viability (in words) ([4]; AsPC-1, 72 h, 1-50 μM) | effect on cell survival / proliferation (in words) [5] | effect on cell survival / proliferation (in words) [6] | effect on cell survival / proliferation (in words) [7] | effect on cell survival / viability (in words) ([3]; BxPC-3, 72 h, 1-50 μM) | suppression of proliferation, up to ([4]; AsPC-1, 72 h, concentration-dependent, 1-50 μM) | IC50 ([4]; Homo sapiens, ASPC1, 72 h, read-out: IC50, inhibition of cell proliferation) [µM] | suppression of proliferation, up to ([5]; concentration-dependent) | suppression of proliferation, up to ([3]; BxPC-3, 72 h, concentration-dependent, 1-50 μM) | cytotoxicity at 25 µM ([3]; Homo sapiens, BXPC-3, 72 h, BxPC-3, 25 μM, 72 h, read-out: decrease in cell growth / viability) [%] | IC50 ([3]; Homo sapiens, BXPC-3, 72 h, read-out: IC50, inhibition of cell proliferation) [µM]
1 | COc1cccc2c1C(=O)c1c(O)c3c(c(O)c1C2=O)C[C@@](O)(C(=O)CO)C[C@@H]3O[C@H]1C[C@H](N)[C@H](O)[C@H](C)O1 [doxorubicin] | Neither gemcitabine nor doxorubicin reduced | Neither gemcitabine nor doxorubicin reduced | 67 | 94 | – | – | – | – | – | – | – | – | – | – | –
2 | Nc1ccn([C@@H]2O[C@H](CO)[C@@H](O)C2(F)F)c(=O)n1 [gemcitabine] | Neither gemcitabine nor doxorubicin reduced | Neither gemcitabine nor doxorubicin reduced | 77 | 80 | – | – | – | – | – | – | – | – | – | – | –
3 | CN(C)c1cc(CNCC(C)(C)C)c(O)c2c1C[C@H]1C[C@H]3[C@H](N(C)C)C(O)=C(C(N)=O)C(=O)[C@@]3(O)C(O)=C1C2=O [omadacycline] | – | – | – | – | no significant effect on cell survival | no significant effect on cell survival | no significant effect on cell survival | no significant effect on cell survival | no significant effect on cell survival | – | – | – | – | – | –
4 | CN(C)c1cc(NC(=O)CNC(C)(C)C)c(O)c2c1C[C@H]1C[C@H]3[C@H](N(C)C)C(O)=C(C(N)=O)C(=O)[C@@]3(O)C(O)=C1C2=O [tigecycline] | – | – | – | – | – | – | no significant effect | no significant effect | – | 60-65% | 4.58 | 60-65% | 60-65% | 60 | 9.9
